Results taken from US9029559B2, “Substituted 3-heteroaroylamino-propionic acid derivatives and their use as pharmaceuticals” (SANOFI, priority 2011, dated 2015).
pIC50: −log10 of the molar value.

The molecules below were run against Recombinant human cathepsin A (Homo sapiens (Human), UniProt P10619) (assay: Cathepsin A inhibitory activity (cleavage of Bodipy FL-labeled bradykinin, microfluidic capillary electrophoresis)). Settings: read-out: Activity (Cathepsin A inhibitory activity, IC50).
Assay type: biochemical

Sequence of Recombinant human cathepsin A (P10619 29-326): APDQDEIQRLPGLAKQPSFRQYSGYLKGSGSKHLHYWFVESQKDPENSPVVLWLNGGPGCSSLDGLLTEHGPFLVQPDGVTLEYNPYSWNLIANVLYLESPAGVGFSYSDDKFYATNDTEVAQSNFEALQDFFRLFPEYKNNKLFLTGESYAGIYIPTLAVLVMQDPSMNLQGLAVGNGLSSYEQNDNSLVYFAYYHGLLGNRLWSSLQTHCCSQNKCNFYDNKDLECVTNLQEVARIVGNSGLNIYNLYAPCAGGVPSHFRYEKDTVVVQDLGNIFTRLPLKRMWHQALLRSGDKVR
Sequence of Recombinant human cathepsin A (P10619 327-480): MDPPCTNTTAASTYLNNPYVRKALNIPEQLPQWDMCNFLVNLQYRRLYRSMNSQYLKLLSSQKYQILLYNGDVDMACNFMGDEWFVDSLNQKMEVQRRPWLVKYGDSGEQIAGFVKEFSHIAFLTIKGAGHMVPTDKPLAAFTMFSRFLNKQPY

Row | pIC50 | Compound
1 | 5.45 | COc1cc(OC)nc(Oc2cccnc2C(=O)NC(CC(=O)O)c2ccccc2Cl)n1 (centres unmarked) [compound 615]
2 | 5.84 | COc1ccc(C(=O)NC(CC(=O)O)c2ccccc2Cl)nc1Br (centres unmarked) [compound 598, 3-[(6-Bromo-5-methoxy-pyridine-2-carbonyl)-amino]-3-(2-chloro-phenyl)-propionic acid]
3 | 5.55 | COc1ccc([C@H](CC(=O)O)NC(=O)c2cccc(-c3ccccc3Cl)n2)cc1 [compound 599]

Same assay, conditions: read-out: Activity (IC50, cathepsin A inhibition)

Row | Compound | pIC50
4 | Cc1ccccc1[C@H](CC(=O)O)NC(=O)c1cncc(Cl)n1 [compound 514] | 5.92
5 | COc1ccc(C(=O)N[C@@H](CC(=O)O)c2ccccc2C)nc1-c1cccnc1 [compound 578] | 5.12
6 | O=C(O)CC(NC(=O)c1cc(-c2ccccc2)ccn1)c1ccccc1Cl (centres unmarked) [compound 565] | 5.39
7 | Cc1ccccc1[C@H](CC(=O)O)NC(=O)c1nc(Cl)ccc1Cl [compound 506] | 5.07
8 | COc1ccc(-c2cccc(C(=O)NC(CC(=O)O)c3ccccc3Cl)n2)cc1 (centres unmarked) [compound 595] | 5.85
9 | COc1ccc(C(=O)N[C@@H](CC(=O)O)c2ccccc2Cl)nc1-c1cccc(C2(O)COC2)c1 [compound 495] | 5.41

Results, then the molecule that gave them:

Row | pIC50 | Compound
10 | 5.24 | COc1cccc(-c2cccc(C(=O)NC(CC(=O)O)c3ccccc3Cl)n2)c1 (centres unmarked) [compound 596]
11 | 4.99 | O=C(O)CC(NC(=O)c1ccncc1)c1ccccc1Cl (centres unmarked) [compound 524]
12 | 5.24 | Cc1ccnc(C(=O)NC(CC(=O)O)c2ccccc2Cl)c1 (centres unmarked) [compound 528]

Same assay, conditions: read-out: Activity (IC50, cathepsin A inhibitory activity)

Row | Compound | pIC50
13 | CNc1cncc(C(=O)N[C@@H](CC(=O)O)c2ccccc2C)n1 [compound 12] | 5.14
14 | COc1ccc(C(=O)N[C@@H](CC(=O)O)c2ccccc2Cl)nc1-c1cccc(F)c1 [compound 426] | 5.81
15 | COc1ncc(C(=O)N[C@@H](CC(=O)O)c2ccccc2C)cc1-c1ccccc1 [compound 405] | 5.41
16 | COc1ccc(C(=O)N[C@@H](CC(=O)O)c2ccccc2F)nc1-c1cccc(Cl)c1 [compound 265] | 5.76
17 | COc1ccc(C(=O)N[C@@H](CC(=O)O)c2ccccc2Cl)nc1-c1ccc(Cl)c(F)c1 [compound 480] | 5.36
18 | COc1ncc(C(=O)N[C@@H](CC(=O)O)c2ccccc2C)cc1-c1ccc(F)cc1 [compound 407] | 5.36
19 | COc1ccccc1-c1cncc(C(=O)N[C@@H](CC(=O)O)c2ccccc2C)c1 [compound 67] | 5.30
20 | COc1ccc(C(=O)N[C@@H](CC(=O)O)c2ccc(C)cc2)nc1-c1ccc(Cl)c(F)c1 [compound 246] | 5.35
21 | COc1ccc(C(=O)N[C@@H](CC(=O)O)c2ccccc2Cl)nc1-c1cccc(-c2ccccc2)c1 [compound 436] | 5.53
22 | COc1cccc(-c2cc(C(=O)N[C@@H](CC(=O)O)c3ccccc3C)cnc2OC)c1 [compound 412] | 5.08
23 | COc1ccc(C(=O)N[C@@H](CC(=O)O)c2ccccc2Cl)nc1-c1ccc(F)c(F)c1 [compound 440] | 5.71
24 | Cc1ccccc1[C@H](CC(=O)O)NC(=O)c1cccnc1 [compound 8] | 4.98
25 | CCc1ccnc(C(=O)N[C@@H](CC(=O)O)c2ccccc2C)c1 [compound 18] | 5.51
26 | COc1ccc(C(=O)N[C@@H](CC(=O)O)c2ccccc2Cl)nc1-c1ccc(C)cc1C [compound 450] | 5.80
27 | COc1ncc(C(=O)N[C@@H](CC(=O)O)c2ccccc2C)cc1-c1ccccc1F [compound 418] | 5.97
28 | COc1ccc(C(C)(C)C)cc1-c1nc(C(=O)N[C@@H](CC(=O)O)c2ccc(C)cc2)ccc1OC [compound 240] | < 5.00

The remaining lines, values ahead:

Row | pIC50 | Compound
29 | 5.47 | Cc1ccccc1[C@H](CC(=O)O)NC(=O)c1ncccc1F [compound 33]
30 | 5.43 | Cc1ccccc1[C@H](CC(=O)O)NC(=O)c1cc(CC(C)C)nc(N)n1 [compound 52]
31 | 5.12 | COc1ccc(C(=O)N[C@@H](CC(=O)O)c2ccc(C)cc2)nc1-c1ccc(F)nc1 [compound 227]
32 | 5.40 | COc1ccc(C(=O)N[C@@H](CC(=O)O)c2ccccc2F)nc1-c1cc(C(F)(F)F)ccc1F [compound 304]
33 | 5.74 | Cc1cc(C)nc(C(=O)N[C@@H](CC(=O)O)c2ccccc2C)c1 [compound 51]
34 | 5.11 | Cc1ccccc1[C@H](CC(=O)O)NC(=O)c1cc(N2CCOCC2)ccn1 [compound 50]
35 | 5.38 | COc1cc(OC)nc(C(=O)N[C@@H](CC(=O)O)c2ccccc2C)n1 [compound 30]
36 | 5.39 | COc1ccc(C(=O)N[C@@H](CC(=O)O)c2ccccc2F)nc1-c1cccc(C(F)(F)F)c1 [compound 253]
37 | 5.37 | COc1ccc(C(=O)N[C@@H](CC(=O)O)c2ccccc2C)nc1-c1cccc(-c2nnc(C)o2)c1 [compound 471, (S)-3-({5-Methoxy-6-[3-(5-methyl-[1,3,4]oxadiazol-2-yl)-phenyl]-pyridine-2-carbonyl}-amino)-3-o-tolyl-propionic acid]
38 | 5.24 | COc1ncc(C(=O)N[C@@H](CC(=O)O)c2ccccc2C)cc1-c1ccc(Cl)cc1 [compound 408]
39 | 5.40 | COc1ccc(C(=O)N[C@@H](CC(=O)O)c2ccc(C)cc2)nc1-c1ccccc1C(=O)N(C)C [compound 228]
40 | 5.40 | COc1ccc(C(=O)N[C@@H](CC(=O)O)c2ccccc2F)nc1-c1ccc(C)cc1C [compound 291]
41 | 4.95 | Cc1ccccc1[C@H](CC(=O)O)NC(=O)c1cccc(-n2ccnc2)n1 [compound 56]
42 | 5.40 | Cc1ccccc1[C@H](CC(=O)O)NC(=O)c1ccccn1 [compound 5]
43 | 5.04 | COc1ccc(C(=O)N[C@@H](CC(=O)O)c2ccccc2Cl)nc1-c1ccnc(N2CCOCC2)c1 [compound 490]
44 | 5.99 | COc1ccc(C(=O)N[C@@H](CC(=O)O)c2ccccc2F)nc1-c1cccc(C)c1 [compound 269]
45 | 5.63 | COc1cc(Cl)ccc1-c1nc(C(=O)N[C@@H](CC(=O)O)c2ccc(C)cc2)ccc1OC [compound 232]
46 | 5.30 | COc1ccc(-c2nc(C(=O)N[C@@H](CC(=O)O)c3ccccc3F)ccc2OC)cc1 [compound 259]

Same assay, conditions: read-out: Activity [μM] (IC50, cathepsin A inhibitory activity)

Row | Compound | IC50
47 | COc1ccc(C(=O)N[C@@H](CC(=O)O)c2ccccc2C)nc1-c1cccc(C#N)c1 [compound 359] | 4.49 µM
48 | Cc1ccccc1[C@H](CC(=O)O)NC(=O)c1cccc(-c2ccc(F)cc2)n1 [compound 135] | 1.18 µM
49 | COc1ccc(C(=O)N[C@@H](CC(=O)O)c2ccccc2C)nc1-c1ccncc1 [compound 365] | 5.45 µM
50 | Cc1ccccc1[C@H](CC(=O)O)NC(=O)c1cccc(-c2ccc(C(=O)N(C)C)c(Cl)c2)n1 [compound 174] | 1.59 µM
51 | COc1cccc(-c2nc(C(=O)N[C@@H](CC(=O)O)c3ccccc3Cl)ccc2OC)c1 [compound 339] | 2.78 µM
52 | COc1ccc(C(=O)N[C@@H](CC(=O)O)c2ccccc2C)nc1-c1cccc(C(C)=O)c1 [compound 360] | 2.42 µM
53 | COc1ccc(C(=O)N[C@@H](CC(=O)O)c2ccccc2Cl)nc1-c1ccc(C(F)(F)F)cc1 [compound 337] | 9.5 µM
54 | COc1ccc(C(=O)N[C@@H](CC(=O)O)c2ccccc2F)nc1-c1ccc(Cl)c(F)c1 [compound 313] | 3.55 µM
55 | COc1ccc(C(=O)N[C@@H](CC(=O)O)c2ccccc2C)nc1-c1ccc(F)nc1 [compound 373] | 1.6 µM
56 | COc1ncc(C(=O)N[C@@H](CC(=O)O)c2ccccc2Cl)cc1-c1ccc(C)cc1 [compound 388] | 7.12 µM
57 | COc1ccc(C(=O)N[C@@H](CC(=O)O)c2ccccc2C)nc1-c1ccc(F)c(Cl)c1 [compound 349] | 1.46 µM
58 | COc1ccc(C(=O)N[C@@H](CC(=O)O)c2ccccc2C)nc1-c1ccnc(N2CCOCC2)c1 [compound 381] | > 10 µM
59 | COc1ccc(C(=O)N[C@@H](CC(=O)O)c2ccccc2C)nc1-c1cc(C)cc(Cl)c1 [compound 378] | 7.49 µM
60 | Cc1ccccc1[C@H](CC(=O)O)NC(=O)c1cccc(-c2c(C)noc2C)n1 [compound 159] | 14.4 µM
61 | COc1ccc(C(=O)N[C@@H](CC(=O)O)c2ccccc2C)nc1-c1cccc(F)c1Cl [compound 383] | 1.64 µM
62 | COc1ccc(C(=O)N[C@@H](CC(=O)O)c2ccc(C)cc2)nc1-c1ccc(F)cc1 [compound 185] | 1.29 µM
63 | COc1ccc(C(=O)N[C@@H](CC(=O)O)c2ccccc2Cl)nc1-c1cccc(Cl)c1 [compound 340] | 1.51 µM

The remaining lines, values ahead:

Row | IC50 | Compound
64 | 2.36 µM | Cc1cc(F)c(-c2cccc(C(=O)N[C@@H](CC(=O)O)c3ccccc3C)n2)cc1Cl [compound 175]
65 | 10.4 µM | COc1ncc(C(=O)N[C@@H](CC(=O)O)c2ccccc2Cl)cc1-c1ccc(Cl)cc1 [compound 386]
66 | 6.83 µM | Cc1ccccc1[C@H](CC(=O)O)NC(=O)c1cccc(-c2ccc(C(F)(F)F)cc2)n1 [compound 138]
67 | 8.46 µM | COc1ccc(C(=O)N[C@@H](CC(=O)O)c2ccccc2F)nc1-c1cccc(C2(O)COC2)c1 [compound 326]
68 | 1.81 µM | COc1ccc(C(=O)N[C@@H](CC(=O)O)c2ccccc2Cl)nc1-c1ccc(Cl)cc1 [compound 334]
69 | 1.02 µM | Cc1ccccc1[C@H](CC(=O)O)NC(=O)c1cccc(-c2cc(F)cc(F)c2)n1 [compound 150]
70 | 3.62 µM | Cc1ccccc1[C@H](CC(=O)O)NC(=O)c1cccc(-c2ccc(F)c(Cl)c2)n1 [compound 134]
71 | 2.48 µM | COc1ccc(C(=O)N[C@@H](CC(=O)O)c2ccccc2C)nc1-c1ccccc1C(=O)N(C)C [compound 374]
72 | > 10 µM | COc1ccc(C(C)(C)C)cc1-c1nc(C(=O)N[C@@H](CC(=O)O)c2ccccc2F)ccc1OC [compound 308]
73 | 5 µM | COc1ccc(C(=O)N[C@@H](CC(=O)O)c2ccc(C)cc2)nc1-c1cccc(C(F)(F)F)c1 [compound 181]
74 | 4.85 µM | COc1ccc(-c2nc(C(=O)N[C@@H](CC(=O)O)c3ccc(C)cc3)ccc2OC)cc1 [compound 187]
75 | 1.19 µM | Cc1ccc(-c2cccc(C(=O)N[C@@H](CC(=O)O)c3ccccc3C)n2)cc1C [compound 153]
76 | 2.39 µM | COc1ccc(C(=O)N[C@@H](CC(=O)O)c2ccccc2C)nc1-c1cccc(C2(O)COC2)c1 [compound 384]
77 | 1.4 µM | COc1ccc(C(=O)N[C@@H](CC(=O)O)c2ccc(C)cc2)nc1-c1cccc(-c2ccccc2)c1 [compound 204]
